Test results reported in patent US8394786B2, “Quinazoline derivatives” (Janssen Pharmaceutica N.V., priority 2003, dated 2013).

Assays:
[1] = system: SKOV3 cells; assay: Serum starved proliferation assay on the ovarian carcinoma SKOV3 cells (C3); assay type: cell-based; conditions: EGF stimulated (100 ng/ml, 72 hours, serum free) or 72 hours with compounds, MTT cell viability assay; for IC50: Homo sapiens, SK-OV-3, 72 h, read-out: SKOV3 cell (C3): pIC50 (converted)
Experimental: The ovarian carcinoma cell line (SKOV3) was used in an epidermal growth factor stimulated cell proliferation assay, to assess the inhibitory effect of the compounds on EGF in whole cells.
In a first step the SKOV3 cells were incubated for 24 hours in the presence of 10% FCS serum. In the second step the cells were incubated with the compounds to be tested in a serum free condition (37° C. and 5% (v/v) CO2) and subsequently stimulated for 72 hours with EGF at a final concentration of 100 ng/ml. The effect of the compounds on the EGF stimulation was finally assessed in a standard MTT cell viability assay.
Alternatively, the SKOV3 cells were incubated for 24 hours in the presence of 10% FCS serum. In the second step the cells were incubated for 72 hours with the compounds to be tested and the effect of the compounds on cell proliferation was finally assessed in a standard MTT cell viability assay.

[2] = target: EGFR (Homo sapiens, UniProt P00533); assay: In vitro inhibition of EGFR, Flash Plate or glass-fiber filter technology (C2); assay type: biochemical; parameters: 0.5 μg EGFR-kinase domain/well; conditions: EGFR-kinase domain, 5.0 μM unlabeled ATP, read-out: Kinase activity.(C2): pIC50 (converted)
EGFR, sequence (P00533 712-979 limits assumed): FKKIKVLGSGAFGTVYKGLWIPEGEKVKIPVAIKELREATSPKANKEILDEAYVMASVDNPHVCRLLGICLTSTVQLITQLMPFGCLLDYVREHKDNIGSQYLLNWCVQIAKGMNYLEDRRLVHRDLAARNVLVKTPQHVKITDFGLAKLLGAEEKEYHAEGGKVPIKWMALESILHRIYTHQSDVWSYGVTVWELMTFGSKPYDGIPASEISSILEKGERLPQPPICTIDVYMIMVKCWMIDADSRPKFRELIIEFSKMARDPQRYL
Experimental: The in vitro inhibition of EGFR was assessed using either the Flash Plate technology or the glass-fiber filter technology as described by Davies, S. P. et al., Biochem J. (2000), 351; p. 95-105. The Flash Plate technology is generally described by B. A. Brown et al. in High Throughput Screening (1997), p. 317-328. Editor(s): Devlin, John P. Publisher: Dekker, New York, N.Y.
In the Flash Plate EGFR kinase reaction assay, a kinase substrate consisting of biotinylated poly(L-glutamic acid-L-tyrosine) (poly(GT)biotin), is incubated with the aforementioned protein in the presence of (^33P) radiolabeled ATP. (^33P) phosphorylation of the substrate is subsequently measured as light energy emitted using a streptavidin-coated Flash Plate (PerkinElmer Life Sciences) by trapping and quantifying the binding of the biotin tagged and radiolabeled substrate.
The EGFR kinase reaction is performed at 30° C. for 60 minutes in a 96-well microtiter FlashPlate (PerkinElmer Life Sciences). For each of the tested compounds a full dose response 1·10^−6M to 1·10^−10M has been performed. IRESSA° and Tarceva™ (erlotinib) were used as reference compounds. The 100 μl reaction volume contains 54.5 mM TrisHCl pH 8.0, 10 mM MgCl2, 100 μM Na3VO4, 5.0 μM unlabeled ATP, 1 mM DTT, 0.009% BSA, 0.8 μCi AT^33P, 0.35 μg/well poly(GT)biotin and 0.5 μg EGFR-kinase domain/well.
The reaction is stopped by aspirating the reaction mixture and washing the plate 3× with 200 μl wash/stop buffer (PBS+100 mM EDTA). After the final wash step 200 μl of wash/stop buffer was added to each well and the amount of phosphorylated (^33P) Poly(GT)biotin determined by counting (30 sec/well) in a microtiterplate scintillation counter.
In the glass-fiber filter technology EGFR kinase reaction assay, a kinase substrate consisting of poly(L-glutamic acid-L-tyrosine) (poly(GT)), is incubated with the aforementioned protein in the presence of (^33P) radiolabeled ATP. (^33P) Phosporylation of the substrate is subsequently measured as radioactivity bound on a glassfiber-filter.
The EGFR kinase reaction is performed at 25° C. for 10 minutes in a 96-well microtiterplate. For each of the tested compounds a full dose response 1·10^−6M to 1·10^−10M has been performed. IRESSA° and Tarceva™ (erlotinib) were used as reference compounds. The 25 μl reaction volume contains 60 mM TrisHCl pH 7.5, 3 mM MgCl2, 3 mM Mn Cl2, 3 μM Na3VO4, 50 μg/ml PEG20000, 5.0 μM unlabeled ATP, 1 mM DTT, 0.1 μCi AT^33P, 62.5 ng/well poly(GT) and 0.5 μg EGFR-kinase domain/well.
The reaction is stopped by adding 5 μl of a 3% phosphoric acid solution. 10 μl of the reaction mixture is then spotted onto a Filtermat A filter (Wallac) and washed 3 times for 5 min. in 75 mM phosphoric acid and 1 time for 5 min. in methanol prior to drying and quantification on the Typhoon (Amersham) using a LE phosphorage storage screen.

SMILES	SKOV3 cell (C3): pIC50 [1]	IC50 [2] [nM]	IC50 [1] [nM]
COc1cc2ncnc3c2cc1OCCCC=CCCCC(=O)NCc1ccc(Cl)cc1N3 [Compound 105, 4,6-ethanediylidenepyrimido[4,5-b][6,1,16]benzoxadiazacyclononadecin-16(17H)-one, 21-chloro-8,9,10,13,14,15,18,23-octahydro-24-methoxy-]	7.6	158	
COc1cc2ncnc3c2cc1OCCCC=CCCCC(=O)NCc1ccc(Cl)cc1N3 [Compound 106, 4,6-ethanediylidenepyrimido[4,5-b][6,1,16]benzoxadiazacyclononadecin-16(17H)-one, 21-chloro-8,9,10,13,14,15,18,23-octahydro-24-methoxy-]	7.2	100	
COc1cc2ncnc3c2cc1OCCC=CCCCC(=O)NCc1ccc(Cl)cc1N3 [Compound 108, 4,6-ethanediylidene-8H-pyrimido[4,5-b][6,1,15]benzoxadiazacyclooctadecin-15(16H)-one, 20-chloro-9,12,13,14,17,22-hexahydro-23-methoxy-]		398	158
COc1cc2ncnc3c2cc1OCCCC=CCC(NC(=O)OC(C)(C)C)C(=O)NCc1ccc(Cl)cc1N3 (stereo not drawn) [Compound 109, carbamic acid, (20-chloro-9,10,13,14,15,16,17,22-octahydro-23-methoxy-15-oxo-4,6-ethanediylidene-8H-pyrimido[4,5-b][6,1,15]benzoxadiazacyclooctadecin-14-yl)-, 1,1-dimethylethyl ester]	6.5	2000	
COc1cc2ncnc3c2cc1OCCCCCCC(NC(=O)OC(C)(C)C)C(=O)NCc1ccc(Cl)cc1N3 (stereo not drawn) [Compound 111, carbamic acid, (20-chloro-9,10,11,12,13,14,15,16,17,22-decahydro-23-methoxy-15-oxo-4,6-ethanediylidene-8H-pyrimido[4,5-b][6,1,15]benzoxadiazacyclooctadecin-14-yl)-, 1,1-dimethylethyl ester]		1580	10000
COc1cc2ncnc3c2cc1OCCCCCNCCN(C)Cc1ccc(Cl)cc1N3 [Compound 117, 4,6-ethanediylidene-8H-pyrimido[4,5-b][6,1,12,15]benzoxatriazacyclooctadecine, 20-chloro-9,10,11,12,13,14,15,16,17,22-decahydro-23-methoxy-16-methyl-]		200	3980
COc1cc2ncnc3c2cc1OCC(=O)NC(C)C(=O)NCCc1ccc(Cl)cc1N3 (stereo not drawn) [Compound 119, 4,6-ethanediylidene-8H-pyrimido[4,5-b][6,1,9,12]benzoxatriazacyclohexadecine-9,12-dione, 18-chloro-10,11,13,14,15,20-hexahydro-21-methoxy-11-methyl-]		1000	1580
COc1cc2ncnc3c2cc1OCC(=O)NC(C)C(=O)NCc1ccc(Cl)cc1N3 (stereo not drawn) [Compound 120, 4,6-ethanediylidenepyrimido[4,5-b][6,1,9,12]benzoxatriazacyclopentadecine-9,12(8H,13H)-dione, 17-chloro-10,11,14,19-tetrahydro-20-methoxy-11-methyl-]		2000	1000
COc1cc2ncnc3c2cc1OCC(=O)NC(C(C)C)C(=O)NCc1ccc(Cl)cc1N3 (stereo not drawn) [Compound 121, 4,6-ethanediylidenepyrimido[4,5-b][6,1,9,12]benzoxatriazacyclopentadecine-9,12(8H,13H)-dione, 17-chloro-10,11,14,19-tetrahydro-20-methoxy-11-(1-methylethyl)-]		2510	10000
COc1cc2ncnc3c2cc1OCC(=O)NC(Cc1ccccc1)C(=O)NCc1ccc(Cl)cc1N3 (stereo not drawn) [Compound 122, 4,6-ethanediylidenepyrimido[4,5-b][6,1,9,12]benzoxatriazacyclopentadecine-9,12(8H,13H)-dione, 17-chloro-10,11,14,19-tetrahydro-20-methoxy-11-(phenylmethyl)-]		398	10000
COc1cc2ncnc3c2cc1OCC(=O)NC(C)C(=O)NCc1ccccc1N3 (stereo not drawn) [Compound 123, 4,6-ethanediylidenepyrimido[4,5-b][6,1,9,12]benzoxatriazacyclopentadecine-9,12(8H,13H)-dione, 10,11,14,19-tetrahydro-20-methoxy-11-methyl-]		6310	10000
COc1cc2ncnc3c2cc1OCC(=O)N1CCCC1C(=O)NCc1ccccc1N3 (stereo not drawn) [Compound 125, 9,11-ethanediylidenepyrimido[4,5-b]pyrrolo[1,2-i][6,1,9,12]benzoxatriazacyclopentadecine-14,19(5H,13H)-dione, 16,17,18,18a,20,21-hexahydro-22-methoxy-]		7940	10000
COc1cc2ncnc3c2cc1OCC(=O)N1CCCC1C(=O)NCc1ccc(Cl)cc1N3 (stereo not drawn) [Compound 126, 9,11-ethanediylidenepyrimido[4,5-b]pyrrolo[1,2-i][6,1,9,12]benzoxatriazacyclopentadecine-14,19(5H,13H)-dione, 3-chloro-16,17,18,18a,20,21-hexahydro-22-methoxy-]		2000	2510
COc1cc2ncnc3c2cc1OCC(=O)NC(C(C)O)C(=O)NCc1ccc(Cl)cc1N3 (stereo not drawn) [Compound 127, 4,6-ethanediylidenepyrimido[4,5-b][6,1,9,12]benzoxatriazacyclopentadecine-9,12(8H,13H)-dione, 17-chloro-10,11,14,19-tetrahydro-11-(1-hydroxyethyl)-20-methoxy-]		251	1580
CCC(C)C1NC(=O)CCCOc2cc3c(ncnc3cc2OC)Nc2cc(Cl)ccc2CNC1=O (stereo not drawn) [Compound 128, 4,6-ethanediylidenepyrimido[4,5-b][6,1,11,14]benzoxatriazacycloheptadecine-11,14(8H,15H)-dione, 19-chloro-9,10,12,13,16,21-hexahydro-22-methoxy-13-(1-methylpropyl)-]		10	200
COc1cc2ncnc3c2cc1OCC(=O)NC(CO)C(=O)NCc1ccc(Cl)cc1N3 (stereo not drawn) [Compound 129, 4,6-ethanediylidenepyrimido[4,5-b][6,1,9,12]benzoxatriazacyclopentadecine-9,12(8H,13H)-dione, 17-chloro-10,11,14,19-tetrahydro-11-(hydroxymethyl)-20-methoxy-]		1580	3980
COc1cc2ncnc3c2cc1OCCCC(=O)NC(CO)C(=O)NCc1ccc(Cl)cc1N3 (stereo not drawn) [Compound 130, 4,6-ethanediylidenepyrimido[4,5-b][6,1,11,14]benzoxatriazacycloheptadecine-11,14(8H,15H)-dione, 19-chloro-9,10,12,13,16,21-hexahydro-13-(hydroxymethyl)-22-methoxy-]		25.1	126
COc1cc2ncnc3c2cc1OCCCC(=O)NC(C)C(=O)NCc1ccc(Cl)cc1N3 (stereo not drawn) [Compound 131, 4,6-ethanediylidenepyrimido[4,5-b][6,1,11,14]benzoxatriazacycloheptadecine-11,14(8H,15H)-dione, 19-chloro-9,10,12,13,16,21-hexahydro-22-methoxy-13-methyl-]		25.1	100
